Test results reported in patent US12577234B2, “Antagonists of the muscarinic acetylcholine receptor M4” (Vanderbilt University, priority 2017, dated 2026).

Biological target: T1, human mAChR M4 (Homo sapiens, UniProt P08173)
T1 construct: expressed in transfected cells; host or cells: CHO-K1 (ATCC), stably co-expressing chimeric G protein Gqi5
T1 sequence (P08173 1-479): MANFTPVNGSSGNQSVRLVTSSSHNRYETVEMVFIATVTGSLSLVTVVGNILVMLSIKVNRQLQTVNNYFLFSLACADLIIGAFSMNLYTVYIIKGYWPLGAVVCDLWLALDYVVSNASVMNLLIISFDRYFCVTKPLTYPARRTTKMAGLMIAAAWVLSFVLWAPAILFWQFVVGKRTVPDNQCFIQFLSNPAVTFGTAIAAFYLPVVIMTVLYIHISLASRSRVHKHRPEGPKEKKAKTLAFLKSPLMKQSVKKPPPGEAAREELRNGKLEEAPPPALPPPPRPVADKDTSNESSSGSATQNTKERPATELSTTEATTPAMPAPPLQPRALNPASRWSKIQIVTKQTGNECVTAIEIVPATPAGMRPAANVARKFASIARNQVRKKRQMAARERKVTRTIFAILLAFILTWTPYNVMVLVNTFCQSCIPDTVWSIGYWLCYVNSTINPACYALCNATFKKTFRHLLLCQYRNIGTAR
Assay: mAChR M4 cell-based functional assay (calcium mobilization, EC80 acetylcholine), human M4
Details: for Emin: human M4, % ACh maximum at 30 μM
How it was run: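 CHO-K1 cells stably expressing human M4 with chimeric Gqi5; intracellular calcium rise read on FDSS as fluorescence static ratio at 1 Hz. Compounds in 10-point 1:3 dilution series; IC50 taken as concentration-dependent decrease of the EC80 acetylcholine response, four-parameter logistic fit.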

[1] = Table 9, M4/Gqi5/CHO-K1 cells, decrease of EC80 acetylcholine response
[2] = Table 10, M4/Gqi5/CHO-K1 cells, decrease of EC80 acetylcholine response

Structure (SMILES)	IC50 [1] [µM]	Emin (Table 9) [%]	Human M4 Emin (Table 10) [%]	IC50 [2] [µM]	IC50 (Table 10, μM) [µM]
Fc1ccc(Cl)c(-c2ccc(N[C@H]3C[C@@H]4CN(CC56CC7CC(CC(C7)C5)C6)C[C@@H]4C3)nn2)c1 [Compound 26, (3aR,5s,6aS)-2-(1-adamantylmethyl)-N-[6-(2-chloro-5-fluoro-phenyl)pyridazin-3-yl]-3,3a,4,5,6,6a-hexahydro-1H-cyclopenta[c]pyrrol-5-amine]	0.128	3.20	–	–	–
COc1ccccc1CN1C[C@H]2C[C@H](Nc3ccc(-c4cc(F)ccc4Cl)nn3)C[C@H]2C1 [Compound 174, (3aR,5s,6aS)-N-[6-(2-chloro-5-fluoro-phenyl)pyridazin-3-yl]-2-[(2-methoxyphenyl)methyl]-3,3a,4,5,6,6a-hexahydro-1H-cyclopenta[c]pyrrol-5-amine]	–	–	4	0.207	–
Fc1ccc(CN2C[C@H]3C[C@H](Nc4ccc(-c5cc(F)ccc5Cl)nn4)C[C@H]3C2)cc1 [Compound 163, (3aR,5s,6aS)-N-[6-(2-chloro-5-fluoro-phenyl)pyridazin-3-yl]-2-[(4-fluorophenyl)methyl]-3,3a,4,5,6,6a-hexahydro-1H-cyclopenta[c]pyrrol-5-amine]	–	–	3	0.0197	–
Cc1cnn(C)c1-c1ccc(OCC2C[C@@H]3CN(Cc4ccccc4)C[C@@H]3C2)nn1 (stereo partly drawn) [Compound 86, (3aR,6aS)-2-benzyl-5-[[6-(2,4-dimethylpyrazol-3-yl)pyridazin-3-yl]oxymethyl]-3,3a,4,5,6,6a-hexahydro-1H-cyclopenta[c]pyrrole]	2.86	9.09	–	–	–
Fc1ccc(Cl)c(-c2ccc(OCC3C[C@@H]4CN(Cc5ccccc5)C[C@@H]4C3)nn2)c1 (stereo partly drawn) [Compound 114, (3aR,6aS)-2-benzyl-5-[[6-(2-chloro-5-fluoro-phenyl)pyridazin-3-yl]oxymethyl]-3,3a,4,5,6,6a-hexahydro-1H-cyclopenta[c]pyrrole]	2.5	6.02	–	–	–
CC(=O)Nc1ccc(-c2ccc(O[C@H]3C[C@@H]4CN(Cc5ccc(F)cc5)C[C@@H]4C3)nn2)cc1 [Compound 131, N-[4-[6-[[(3aR,5s,6aS)-2-[(4-fluorophenyl)methyl]-3,3a,4,5,6,6a-hexahydro-1H-cyclopenta[c]pyrrol-5-yl]oxy]pyridazin-3-yl]phenyl]acetamide]	–	–	3	0.977	–
Fc1ccc(Cl)c(-c2ccc(NC[C@H]3C[C@@H]4CN(CC5CC6C=CC5C6)C[C@@H]4C3)nn2)c1 (stereo partly drawn) [Compound 69, N-[[(3aR,5s,6aS)-2-(5-bicyclo[2.2.1]hept-2-enylmethyl)-3,3a,4,5,6,6a-hexahydro-1H-cyclopenta[c]pyrrol-5-yl]methyl]-6-(2-chloro-5-fluoro-phenyl)pyridazin-3-amine]	0.0359	2.74	–	–	–
CCCC(C)CN1C[C@H]2C[C@H](Nc3ccc(-c4cc(F)ccc4Cl)nn3)C[C@H]2C1 (stereo partly drawn) [Compound 30, (3aR,5s,6aS)-N-[6-(2-chloro-5-fluoro-phenyl)pyridazin-3-yl]-2-(2-methylpentyl)-3,3a,4,5,6,6a-hexahydro-1H-cyclopenta[c]pyrrol-5-amine]	0.01	2.88	–	–	–
Cc1cnn(C)c1-c1ccc(OCC2C[C@@H]3CN(CC4CC5C=CC4C5)C[C@@H]3C2)nn1 (stereo partly drawn) [Compound 80, (3aR,6aS)-2-(5-bicyclo[2.2.1]hept-2-enylmethyl)-5-[[6-(2,4-dimethylpyrazol-3-yl)pyridazin-3-yl]oxymethyl]-3,3a,4,5,6,6a-hexahydro-1H-cyclopenta[c]pyrrole]	0.0734	4.07	–	–	–
Fc1ccc(Cl)c(-c2ccc(OCC3C[C@@H]4CN(CC5CC6C=CC5C6)C[C@@H]4C3)nn2)c1 (stereo partly drawn) [Compound 108, (3aR,6aS)-2-(5-bicyclo[2.2.1]hept-2-enylmethyl)-5-[[6-(2-chloro-5-fluoro-phenyl)pyridazin-3-yl]oxymethyl]-3,3a,4,5,6,6a-hexahydro-1H-cyclopenta[c]pyrrole]	0.134	3.90	–	–	–
Fc1ccc(CN2C[C@H]3CC(COc4ccc(-c5cc(F)ccc5Cl)nn4)C[C@H]3C2)cc1 (stereo partly drawn) [Compound 116, (3aR,6aS)-5-[[6-(2-chloro-5-fluoro-phenyl)pyridazin-3-yl]oxymethyl]-2-[(4-fluorophenyl)methyl]-3,3a,4,5,6,6a-hexahydro-1H-cyclopenta[c]pyrrole]	3.38	6.49	–	–	–

Second part, the compound after the results:

IC50 [1] [µM]	Emin (Table 9) [%]	Human M4 Emin (Table 10) [%]	IC50 [2] [µM]	IC50 (Table 10, μM) [µM]	Structure (SMILES)
0.433	4.62	–	–	–	Cc1nn(C)cc1-c1ccc(N[C@@H]2C[C@@H]3CN(CCC(C)(C)C)C[C@@H]3C2)c(F)c1F [Compound 41, (3aR,5r,6aS)-2-(3,3-Dimethylbutyl)-N-[4-(1,3-dimethylpyrazol-4-yl)-2,3-difluoro-phenyl]-3,3a,4,5,6,6a-hexahydro-1H-cyclopenta[c]pyrrol-5-amine]
0.364	3.81	–	–	–	Fc1ccc(Cl)c(-c2ccc(NC[C@H]3C[C@@H]4CN(CC5CCOCC5)C[C@@H]4C3)nn2)c1 [Compound 71, N-[[(3aR,5s,6aS)-2-(tetrahydropyran-4-ylmethyl)-3,3a,4,5,6,6a-hexahydro-1H-cyclopenta[c]pyrrol-5-yl]methyl]-6-(2-chloro-5-fluoro-phenyl)pyridazin-3-amine]
–	–	4	0.0173	–	Cc1nn(C)cc1-c1ccc(O[C@H]2C[C@@H]3CN(CCC(C)(C)C)C[C@@H]3C2)nn1 [Compound 134, (3aR,5s,6aS)-2-(3,3-dimethylbutyl)-5-[6-(1,3-dimethylpyrazol-4-yl)pyridazin-3-yl]oxy-3,3a,4,5,6,6a-hexahydro-1H-cyclopenta[c]pyrrole]
3.79	17.2	–	–	–	Cc1cnn(C)c1-c1ccc(NC[C@H]2C[C@@H]3CN(CC4CCOCC4)C[C@@H]3C2)nn1 [Compound 66, N-[[(3aR,5s,6aS)-2-(tetrahydropyran-4-ylmethyl)-3,3a,4,5,6,6a-hexahydro-1H-cyclopenta[c]pyrrol-5-yl]methyl]-6-(2,4-dimethylpyrazol-3-yl)pyridazin-3-amine]
0.026	–	–	–	–	Cc1cnn(C)c1-c1ccc(N[C@H]2C[C@@H]3CN(CC45CC6CC(CC(C6)C4)C5)C[C@@H]3C2)nn1 [compound 16]
–	–	41	–	> 10	c1ccc(-c2cnc(N[C@H]3C[C@@H]4CN(CC5CCOCC5)C[C@@H]4C3)s2)cc1 [Compound 230, N-[(3aR,5s,6aS)-2-(tetrahydropyran-4-ylmethyl)-3,3a,4,5,6,6a-hexahydro-1H-cyclopenta[c]pyrrol-5-yl]-5-phenyl-thiazol-2-amine]
–	–	4	0.0841	–	Fc1ccc(Cl)c(-c2ccc(N[C@@H]3C[C@@H]4CN(CC5CCOCC5)C[C@@H]4C3)nn2)c1 [Compound 159, (3aR,5r,6aS)-N-[6-(2-chloro-5-fluoro-phenyl)pyridazin-3-yl]-2-(tetrahydropyran-4-ylmethyl)-3,3a,4,5,6,6a-hexahydro-1H-cyclopenta[c]pyrrol-5-amine]
0.0287	4.41	–	–	–	Cc1cnn(C)c1-c1ccc(NCCC2C[C@@H]3CN(CC4CCOCC4)C[C@@H]3C2)nn1 (stereo partly drawn) [Compound 125, N-[2-[(3aR,6aS)-2-(tetrahydropyran-4-ylmethyl)-3,3a,4,5,6,6a-hexahydro-1H-cyclopenta[c]pyrrol-5-yl]ethyl]-6-(2,4-dimethylpyrazol-3-yl)pyridazin-3-amine]
0.01	2.72	–	–	–	Cc1nn(C)cc1-c1ccc(N[C@H]2C[C@@H]3CN(CC4CCCCC4)C[C@@H]3C2)nn1 [Compound 7, (3aR,5s,6aS)-2-(cyclohexylmethyl)-N-[6-(1,3-dimethylpyrazol-4-yl)pyridazin-3-yl]-3,3a,4,5,6,6a-hexahydro-1H-cyclopenta[c]pyrrol-5-amine]
0.0086	4.96	–	–	–	Fc1ccc(Cl)c(-c2ccc(N[C@H]3C[C@@H]4CN(CC5CCCCC5)C[C@@H]4C3)nn2)c1 [Compound 31, (3aR,5s,6aS)-N-[6-(2-chloro-5-fluoro-phenyl)pyridazin-3-yl]-2-(cyclohexylmethyl)-3,3a,4,5,6,6a-hexahydro-1H-cyclopenta[c]pyrrol-5-amine]
1.21	5.25	–	–	–	Cc1nn(C)cc1-c1ccc(N[C@@H]2C[C@@H]3CN(CC4CCCCC4)C[C@@H]3C2)c(F)c1F [Compound 43, (3aR,5r,6aS)-2-(cyclohexylmethyl)-N-[4-(1,3-dimethylpyrazol-4-yl)-2,3-difluoro-phenyl]-3,3a,4,5,6,6a-hexahydro-1H-cyclopenta[c]pyrrol-5-amine]
–	–	10	1.09	–	CC(=O)Nc1ccc(-c2cnc(N[C@H]3C[C@@H]4CN(CC5CCOCC5)C[C@@H]4C3)cn2)cc1 [Compound 158, N-[4-[5-[[(3aR,5s,6aS)-2-(tetrahydropyran-4-ylmethyl)-3,3a,4,5,6,6a-hexahydro-1H-cyclopenta[c]pyrrol-5-yl]amino]pyrazin-2-yl]phenyl]acetamide]
